Laboratory results: US11969408B2, “Method for improving mitophagy in subjects” (Amazentis SA, priority 2017, dated 2024)

Key:
Format in all cases: in vivo, human
[1] = system: mitochondrial content per cell in muscle tissue; assay: Mitochondrial DNA copies per cell in muscle tissue; conditions: 1000 mg per day for 28 days compared with placebo
Experimental: Muscle biopsies were collected on Day −1 and Day 28 at pre-dose under fasted state using the Bergström biopsy needle technique. The minimal amount of each muscle tissue sample was approximately 50 mg. One third of the tissue was used for gene expression (≈50 mg), and was further divided into two equal portions: one portion for RNA analysis (≈25 mg) and one portion for DNA analysis (≈25 mg), both in a Safe-lock Tubes 2.0 ml, Eppendorf (part no. 0030.120.094). Muscle tissue was snap frozen using liquid nitrogen immediately after collection and further, long term storage will be in a −80° C. freezer. The mRNA was analysed by microarray. Quantification of mtDNA over nuclear DNA provided another measure of mitochondrial abundance. The shipment was done in dry ice by specialized carrier. Temperatures were monitored using data logger during all transport. Increasing mitochondrial content per cell in muscle tissue was also observed following dosage of 1000 mg urolithin A per day for 28 days compared with placebo.

plasma acylcarnitines = assay: Plasma metabolomics: acylcarnitine plasma levels
Experimental: Blood sampling was performed for analysis on plasma at the exact time-points described in the table below: Blood handling procedures: at each time point indicated in the table, a 6 mL blood sample was drawn into K2-EDTA coated tube. The blood samples were gently inverted a few times for complete mixing with the anticoagulant. The exact time of sample collection was recorded on the eCRF. Within 30 minutes following blood collection, each blood sample was centrifuged at 1500 g for 10 minutes at 4° C. 30 minutes after the centrifugation, the top layer of human plasma was transferred into 2 pre-labelled polypropylene tubes, containing approximately 1500 μL of plasma. Blood cells were not transferred. All sample tubes were clearly and appropriately labelled. Tubes were capped immediately from each time point and the plasma was be frozen in an upright position at approximately −80° C. for storage. […] Proprietary software was used to match ions to an in-house library of standards for metabolite identification and for metabolite quantitation by peak area integration. A total of 781 metabolites were quantified. […] The grey line in FIG. 11 corresponds to a fold change of 1, i.e. absence of effect. *P<0.05 correspond to a significant effect from D-1 (pre-dose) to D28, calculated after a repeated measures ANOVA. […]

[2] = Plasma pharmacokinetics after 28 day daily oral dosing (clinical study Part B)
Experimental: Part B: The study was a double-blinded, randomized, multiple ascending dose study in 36 healthy elderly male and female volunteers. Each subject was randomised to receive study product or placebo for 28 days. Part B: Repeated oral dose administration from day 1 to day 28 according to the randomization. The administration took place around 8:00 am with around 200 mL tap water, in a sitting position, and under fasting conditions. Cohort 3 (12 subjects): 1000 mg urolithin A (9 subjects) or placebo (3 subjects) soft gel capsule formulation for 28 days. After multiple dosing: Cmax, tmax, AUC0-24h, t1/2 From the plasma concentration-time data, the following pharmacokinetic parameters will be determined, as data permit using non-compartmental methods: maximum observed plasma concentration (Cmax) (ng/mL), time at which maximum observed plasma concentration (tmax) (h), area under the plasma concentration-time curve AUC(0-24h) (ng/mL*h) and AUC(0-∞) (ng/mL*h), and apparent terminal phase half-life (t1/2) (h). Blood sampling was performed for urolithin A concentration measurements at the exact timepoints with an authorised time window described in the table below: At each time point indicated in the table, a 6 mL blood sample was drawn into K2-EDTA coated tube. The blood samples were gently inverted a few times for complete mixing with the anticoagulant. The exact time of sample collection was recorded on the eCRF. Within 30 minutes following blood collection, each blood sample was centrifuged at 1500 g for 10 minutes at 4° C. From the plasma concentration-time data, the following pharmacokinetic parameters were determined, as data permit using non-compartmental methods: maximum observed plasma concentration (Cmax), time at which maximum observed plasma concentration (tmax), area under the plasma concentration-time curve AUC(0-24h) and AUC(0-∞), and apparent terminal phase half-life (t1/2).

[3] = system: pyruvate, lactate and glucose in plasma; assay: Plasma metabolomics: pyruvate, lactate, glucose plasma levels; conditions: 1000 mg cohort, day −1 to day 28
Experimental: Blood sampling was performed for analysis on plasma at the exact time-points described in the table below: Blood handling procedures: at each time point indicated in the table, a 6 mL blood sample was drawn into K2-EDTA coated tube. The blood samples were gently inverted a few times for complete mixing with the anticoagulant. The exact time of sample collection was recorded on the eCRF. Within 30 minutes following blood collection, each blood sample was centrifuged at 1500 g for 10 minutes at 4° C. 30 minutes after the centrifugation, the top layer of human plasma was transferred into 2 pre-labelled polypropylene tubes, containing approximately 1500 μL of plasma. Blood cells were not transferred. All sample tubes were clearly and appropriately labelled. Tubes were capped immediately from each time point and the plasma was be frozen in an upright position at approximately −80° C. for storage. Measurement of metabolites: Samples were extracted and split into equal parts for analysis on the LC/MS/MS and Polar LC platforms. Proprietary software was used to match ions to an in-house library of standards for metabolite identification and for metabolite quantitation by peak area integration. A total of 781 metabolites were quantified. Metabolomics is the study of known measurable metabolites in a sample. […]

**Q.** What does the source list for `O=c1oc2cc(O)ccc2c2ccc(O)cc12` [Urolithin A]?
**A.** mitochondrial content per cell in muscle tissue (mitochondrial DNA copies per cell) [1]: Increasing; carnitine levels (plasma acylcarnitines; 28 days treatment at 1000 mg): did not change; plasma short chain up to long chain acylcarnitines (plasma acylcarnitines; after 28 days treatment at 1000 mg, day −1 to day 28): overall decrease; pharmacokinetic profile over the 28 day period (mean plasma concentrations 24 h after previous dose) ([2]; 500 mg daily dosage, days 0, 7, 14, 28, 29): stable; Cmax ([2]; both sexes, human, plasma, day 28, daily oral 1000 mg urolithin A for 28 days): 1.97 ng/mL; AUC ([2]; both sexes, human, plasma, day 28, daily oral 1000 mg urolithin A for 28 days, read-out: AUC out to 24 hours): 17.5 ng·h/mL; pyruvate, lactate and glucose levels in plasma [3]: no significant change
